Test results taken from ChEMBL document CHEMBL5674860, “Optimized Dual-Glo Assay to identify co-culture-induced drug vulnerabilities in 3D CRC models” (2024).

Experiments:
Type in all cases: functional, Homo sapiens
Set-up in all cases: dose or concentration left out as unconfirmed
Colon cancer organoid [1] = assay: Optimized Dual-Glo assay to identify co-culture induced drug vulnerabilities using donated chemical probes and chemogenomics kinase set in O14 CRC organoid and F14 CAF mono and co-culture. […] Cell viability is reported both mono and co-culture models.
Colon cancer organoid [2] = assay: Optimized Dual-Glo assay to identify co-culture induced drug vulnerabilities using donated chemical probes and chemogenomics kinase set in O20 CRC organoid and F20 CAF mono and co-culture. […] Cell viability is reported both mono and co-culture models.
Colon cancer organoid [3] = assay: Optimized Dual-Glo assay to identify co-culture induced drug vulnerabilities using donated chemical probes and chemogenomics kinase set in O06 CRC organoid and F06 CAF mono and co-culture. […] Cell viability is reported both mono and co-culture models.
[4] = Culture type Co-Culture, Transduced with Lucferase2-P2A-EGFP lentivirus
[5] = Culture type Co-Culture, Transduced with Renilla-dsRed lentivirus
[6] = Culture type Mono-Culture, Transduced with Lucferase2-P2A-EGFP lentivirus
[7] = Culture type Mono-Culture, Transduced with Renilla-dsRed lentivirus

| SMILES | Cell Viability (Colon cancer organoid [1]; [4]) | Cell Viability (Colon cancer organoid [1]; [5]) | Cell Viability (Colon cancer organoid [1]; [6]) | Cell Viability (Colon cancer organoid [1]; [7]) | Cell Viability (Colon cancer organoid [2]; [4]) | Cell Viability (Colon cancer organoid [2]; [5]) | Cell Viability (Colon cancer organoid [2]; [6]) | Cell Viability (Colon cancer organoid [2]; [7]) | Cell Viability (Colon cancer organoid [3]; [4]) | Cell Viability (Colon cancer organoid [3]; [5]) | Cell Viability (Colon cancer organoid [3]; [6]) | Cell Viability (Colon cancer organoid [3]; [7]) |
| --- | --- | --- | --- | --- | --- | --- | --- | --- | --- | --- | --- | --- |
| CC[C@@H]1C(=O)N(C)c2cnc(Nc3ccc(C(=O)NC4CCN(C)CC4)cc3OC)nc2N1C1CCCC1 [BI-2536] | 6.08% | 320.789% | 25.6478% | 192.03% | 3.7112% | 168.723% | 5.1365% | 106.916% | 3.341% | 324.743% | 5.694% | 205.81% |
| COc1ccccc1-c1cc(N2CCN(C(=O)OC(C)(C)C)CC2)c(N)nn1 | 99.785% | 110.211% | 110.079% | 98.4172% | 122.85% | 160.936% | 122.916% | 117.085% | 99.4085% | 102.712% | 83.0998% | 116.6% |
| CC1=CC(C)=[N+]2C1=C(CCCCc1cn(CC(=O)N3CCc4nc(NC(=O)[C@H]5CCN(C#N)C5)sc4C3)nn1)c1c(C)cc(C)n1[B-]2(F)F | 88.5952% | 139.238% | 60.7776% | 90.2828% | 77.2227% | 101.216% | 73.7517% | 82.644% | 125.029% | 111.523% | 94.7301% | 81.9832% |
| COc1ccccc1S(=O)(=O)Nc1ccc2c(c1)CN(C)C(=O)N2 | 98.1337% | 101.069% | 91.805% | 99.3977% | 111.384% | 99.8859% | 75.6376% | 98.229% | 75.1061% | 112.248% | 98.6756% | 116.533% |
| O=C(Nc1cccnn1)N1CC(C/C=C/c2cncc(Oc3ccc(C(F)(F)F)cn3)n2)C1 | 84.7499% | 109.288% | 99.5215% | 99.7577% | 97.9448% | 112.944% | 119.523% | 106.69% | 131.321% | 196.307% | 116.585% | 92.4101% |
| FC(F)(F)c1ccc2c(c1)nc(-c1cccnc1)n2C1CC1 [MSD-CYP11B2-Negative-control] | 79.1334% | 88.6801% | 68.2082% | 99.4361% | 98.8357% | 114.7% | 79.6989% | 74.5522% | 103.115% | 83.1787% | 99.8949% | 100.759% |
| Cc1ccc(C(=O)Nc2cccc(C(F)(F)F)c2)cc1Nc1nc(-c2cccnc2)nc2c1cnn2C | 103.322% | 86.6207% | 91.8457% | 71.8424% | 141.672% | 123.917% | 68.1835% | 97.2478% | 60.2736% | 70.9034% | 100.972% | 83.1262% |
| C[C@H](NC(=O)Nc1cc2[nH]ncc2c(CO)n1)c1ccccn1 [ERKi-NC] | 88.9935% | 102.074% | 55.928% | 92.432% | 108.541% | 124.126% | 136.018% | 90.7734% | 88.473% | 87.7291% | 101.937% | 116.172% |
| CCNC(=O)c1cc2c(N3CCOC[C@@H]3C)ccnc2n1C | 83.5289% | 107.252% | 73.6623% | 93.9449% | 107.341% | 102.95% | 119.318% | 105.417% | 128.018% | 156.16% | 122.983% | 98.196% |
| Cc1cc2c(-c3ccco3)cnc(N[C@H]3CCN(C)C[C@@H]3C(=O)NC3CCCCC3)c2[nH]c1=O [GSK791] | 95.0265% | 100.863% | 120.55% | 112.529% | 101.755% | 116.18% | 85.6153% | 75.9377% | 113.813% | 153.556% | 183.923% | 92.8694% |
| Cc1nc(-c2cn3c(n2)-c2ccc(-c4cnn(C(C)(C)C(N)=O)c4)cc2OCC3)n(C(C)C)n1 [TASELISIB] | 25.1108% | 133.934% | 29.7364% | 65.8836% | 15.8608% | 146.008% | 9.086% | 84.7341% | 42.3556% | 62.2904% | 29.0303% | 59.8749% |
| C[C@@H]1CCN(C(=O)CC#N)C[C@@H]1N(C)c1ncnc2[nH]ccc12.O=C(O)CC(O)(CC(=O)O)C(=O)O [TOFACITINIB CITRATE] | 119.294% | 99.6774% | 102.323% | 98.8919% | 115.032% | 86.9545% | 89.5356% | 81.856% | 105.115% | 91.9737% | 115.164% | 114.62% |
| Cn1c(C2(NC(=O)c3ccc4c(C5CCCC5)c(-c5ncc(Br)cn5)n(C)c4c3)CCC2)nc2ccc(/C=C/C(=O)O)cc21 [DELEOBUVIR] | 94.147% | 102.969% | 81.1663% | 89.5103% | 79.9036% | 130.288% | 108.218% | 110.732% | 116.632% | 84.3073% | 123.499% | 101.583% |
| O[C@H]1CC[C@H](Nc2ncc3nc(Nc4c(F)cc(F)cc4F)n([C@H]4CCOC4)c3n2)CC1 [TANZISERTIB] | 101.857% | 126.192% | 105.608% | 109.828% | 129.23% | 97.8883% | 76.6269% | 101.702% | 96.802% | 109.826% | 106.51% | 114.573% |
| CN(C)C(=O)Cn1cc(-c2nc(C3(c4ccc(-c5cnc(N)nc5)cc4)CC3)no2)cn1 [BI 0153] | 85.1631% | 102.426% | 124.477% | 95.7431% | 119.435% | 91.9766% | 120.102% | 113.624% | 114.895% | 116.335% | 110.704% | 85.1331% |
| CNCCN1CCC(c2cc(CN(C)C(=O)c3cccc(Oc4ccccc4)c3)ccn2)CC1 | 99.3221% | 120.381% | 93.8948% | 118.528% | 67.0647% | 133.473% | 86.7663% | 93.4663% | 83.6812% | 129.007% | 98.3617% | 135.689% |
| CCC(=O)N1CCOc2c(cc(-c3ccc(OC)c(OC)c3)cc2OCC2CCCN(C)C2)C1 (stereo unspecified) | 85.4363% | 159.816% | 85.7096% | 112.054% | 85.3108% | 123.175% | 108.47% | 90.76% | 113.999% | 135.091% | 45.0129% | 100.645% |
| COc1cc(OC)cc(-c2noc(N3CCN(C)C4(CCN(c5ccccc5)CC4)C3)n2)c1 | 94.7889% | 110.973% | 95.4006% | 91.5093% | 90.0996% | 110.491% | 105.262% | 93.4153% | 67.7845% | 115.277% | 89.2845% | 104.733% |
